# Laboratory results taken from patent US20100254928A1, “NOVEL COMPOSITION CONTAINING OZONIZED SURFACTANT” (priority 2007, published 2010).
# Tests used:
# [1] = test system: Cladosporium cladosporioides; experiment: Minimum inhibitory concentration test; type: cell-based; settings: 96 h, 25° C., 1 × 10^5/mL
# From the text: (§1) In order to check the antimicrobial and antifungal performance of the ozonized surfactant, bacteriostatic and bactericidal effects of the ozonized surfactant against five kinds of microorganisms were examined. The five kinds of target microorganisms were Staphylococcus aureus as a prokaryotic gram-positive bacterium, Escherichia coli as a prokaryotic gram-negative bacterium, Saccharomyces cerevisiae and Trichophyton mentagrophytes as fungi which are eukaryotic microorganisms, and Cladosporium cladosporioides. One loopful of each strain was inoculated in a medium optimum for the strain, and cultured under culture conditions optimum for the strain to prepare a cell suspension for inoculation.
# (§2) The solution A obtained in Example 4 was placed in test tubes, and was then diluted with sterilized water 2-, 4-, 8-, 16-, 32-, 64-, 128-, 256-, and 512-fold to prepare 10 levels of diluted ozonized surfactant solutions. Into L-shaped test tubes for a biophotorecorder, 9 mL of each medium shown in Table 1 was dispensed and sterilized by steam. Then, 1 mL of each of the 10 levels of diluted ozonized surfactant solutions was added aseptically to the L-shaped test tubes to prepare 10 mL of 10-, 20-, 40-, 80-, 160-, 320-, 640-, 1280-, 2560-, and 5120-fold diluted solutions of the solution A (hereinafter, referred to as a “graduated dilution series to be tested”). Into the graduated dilution series to be tested, 0.1 mL of the cell suspension for inoculation was inoculated (the initial number of cells of each microorganism is shown in Table 1). The L-shaped test tubes into which the cell suspension had been inoculated were set in a biophotorecorder (made by Advantec Toyo Kaisha, Ltd.) and subjected to shaking culture (30 rpm) under conditions shown in Table 1. The test tubes to be used were sterilized by dry heat (165° C. for 1 hour), and the media, sterilized water, and tools were sterilized by steam in an autoclave (121° C. for 15 minutes). In the following tests, they were sterilized in the same manner.
# (§3) Another graduated dilution series was prepared between the temporary minimum inhibitory concentration and the concentration of the ozonized surfactant nearest to the temporary minimum inhibitory concentration, at which turbidity occurred. Then, the same operation as described above was again carried out. […] This MIC test against these five kinds of microorganisms was carried out also using, as a control, the surfactant solution before ozone treatment.
# Escherichia coli [2] = experiment: Minimum inhibitory concentration test; type: cell-based; settings: 24 h, 30° C., 1 × 10^7/mL
# From the text: as §1, §2, §3
# Saccharomyces cerevisiae = experiment: Minimum inhibitory concentration test; type: cell-based; settings: 48 h, 28° C., 1 × 10^6/mL
# From the text: as §1, §2, §3
# Staphylococcus aureus [3] = experiment: Minimum inhibitory concentration test; type: cell-based; settings: 24 h, 37° C., 1 × 10^7/mL
# From the text: as §1, §2, §3
# [4] = test system: Trichophyton mentagrophytes; experiment: Minimum inhibitory concentration test; type: cell-based; settings: 96 h, 25° C., 1 × 10^5/mL
# From the text: as §1, §2, §3
# Escherichia coli [5] = experiment: Sterilizing activity value test; type: cell-based; settings: 0.5% aqueous solution, contact time 5 min, 25 ± 1° C., vs 0.05 (w/v %) Polysorbate 80 control
# Description: (§4) In order to check the effect of the ozonized surfactant as a sterilizing detergent, a sterilizing activity test was performed. A 0.5% aqueous solution of the solution obtained in Example 4 was tested based on the sterilizing activity test of home care synthetic detergents and soaps, which is a method set by Detergent and Soap Fair Trade Council. […] Each of the control solution and the test sample solutions described in the table below is applied to a test specimen to which bacteria have been inoculated beforehand. After letting the specimens stand for a certain period of time, the viable bacteria count on each specimen is measured. The sterilizing activity value is obtained by subtracting the common logarithm value of the viable bacteria count on the specimen treated with a test sample from the common logarithm value of the viable bacteria count on the specimen treated with the control. […] In a predetermined period of time, an inactivator is applied to inactivate the property suppressing the growth of bacteria and the property killing bacteria, and subsequently the viable bacteria count on the specimen is determined. […]
# Staphylococcus aureus [6] = experiment: Sterilizing activity value test; type: cell-based; settings: 0.5% aqueous solution, contact time 5 min, 25 ± 1° C., vs 0.05 (w/v %) Polysorbate 80 control
# Description: as §4
# insects such as ants = experiment: Repellent activity (Test Example 14); type: in vivo, pill bug; settings: 8 hours
# Description: The repellent performance of the ozonized surfactant of the present invention was checked. […] In addition, 1 g of honey was instilled into the center. […] These specimens were placed on leaf mold in a flower bed, and the conditions were observed 8 hours later.
# Escherichia coli [7] = experiment: Bactericidal activity test with variation of the period of action; type: cell-based
# Description: (§5) In order to check the bactericidal activity of the ozonized surfactant, a bactericidal activity test was performed with variation of the period of action.
# (§6) Developed colonies were scraped off and a bacterial solution of about 10^8 CFU/mL was prepared.
# (§7) Into 50 mL centrifuging tubes, 10 mL each of 0.5% and 0.05% aqueous solutions of the ozonized surfactant obtained in Example 4 were separately poured. To each solution, 0.1 mL of sample bacterial solution was inoculated and mixed for a predetermined period of action at room temperature. To 10 mL of SCDLP bouillon medium (EIKEN CHEMICAL) of which the effectiveness as an inactivator had been confirmed beforehand, 0.1 mL of the resulting solution after a predetermined period of action was added for inactivation of bactericidal components. Then the bacteria count was measured. As a control test, the same operation was performed with the use of an unozonized surfactant or sterile purified water. A 10-fold serial dilution of each sample solution after inactivation was prepared. Each 1 mL of the undiluted and diluted sample solutions were separately mixed with about 20 mL of agar medium, and then cultured. After culturing, the number of colony forming units per 1 mL of each sample solution was counted.
# Pseudomonas aeruginosa = experiment: as above; type: cell-based
# Description: as §5, §6, §7
# Staphylococcus aureus [8] = experiment: as above; type: cell-based
# Description: as §5, §6, §7
# [9] = Conc. 0.05%, period of action 10 min
# [10] = Conc. 0.05%, period of action 30 min
# [11] = Conc. 0.5%, period of action 5 min
# [12] = Conc. 0.5%, period of action 10 min
# [13] = Conc. 0.5%, period of action 30 min
substance,measurement,setting,value
Ozonized POE (10 EO) oleyl ether [Example 4],Minimum inhibitory concentration,[1],0.09%
same,Minimum inhibitory concentration,Escherichia coli [2],0.25%
same,Minimum inhibitory concentration,Saccharomyces cerevisiae,0.02%
same,Minimum inhibitory concentration,Staphylococcus aureus [3],0.11%
same,Minimum inhibitory concentration,[4],0.03%
same,sterilizing activity value,Escherichia coli [5],4.6
same,sterilizing activity value,Staphylococcus aureus [6],2.8
same,insects gathered on the specimen,insects such as ants; 2 mL of 1% aqueous solution on tissue paper with 1 g honey,did not gather at all
same,insects gathered on the specimen,insects such as ants; 2 mL of 10% aqueous solution on tissue paper with 1 g honey,did not gather at all
same,bacteria count,"Escherichia coli [7]; Conc. 0.05%, period of action 5 min, 0 min 3.8 × 10^6",4.8 × 10^6 CFU/mL
same,bacteria count,Escherichia coli [7]; [9],<1 × 10^2 CFU/mL
same,bacteria count,Escherichia coli [7]; [10],<1 × 10^2 CFU/mL
same,bacteria count,Escherichia coli [7]; [11],<1 × 10^2 CFU/mL
same,bacteria count,Escherichia coli [7]; [12],<1 × 10^2 CFU/mL
same,bacteria count,Escherichia coli [7]; [13],<1 × 10^2 CFU/mL
same,bacteria count,"Pseudomonas aeruginosa; Conc. 0.05%, period of action 5 min, 0 min 4.5 × 10^6",1.5 × 10^2 CFU/mL
same,bacteria count,Pseudomonas aeruginosa; [9],<1 × 10^2 CFU/mL
same,bacteria count,Pseudomonas aeruginosa; [10],<1 × 10^2 CFU/mL
same,bacteria count,Pseudomonas aeruginosa; [11],<1 × 10^2 CFU/mL
same,bacteria count,Pseudomonas aeruginosa; [12],<1 × 10^2 CFU/mL
same,bacteria count,Pseudomonas aeruginosa; [13],<1 × 10^2 CFU/mL
same,bacteria count,"Staphylococcus aureus [8]; Conc. 0.05%, period of action 5 min, 0 min 8.2 × 10^6",<1 × 10^2 CFU/mL
same,bacteria count,Staphylococcus aureus [8]; [9],1 × 10^2 CFU/mL
same,bacteria count,Staphylococcus aureus [8]; [10],<1 × 10^2 CFU/mL
same,bacteria count,Staphylococcus aureus [8]; [11],<1 × 10^2 CFU/mL
same,bacteria count,Staphylococcus aureus [8]; [12],<1 × 10^2 CFU/mL
same,bacteria count,Staphylococcus aureus [8]; [13],<1 × 10^2 CFU/mL
